Results taken from patent publication US20080171037A1, “Apo-3 ligand polypeptide” (Genentech, Inc., priority 1997, published 2008).
Where a SMILES comes first, the peptide text is derived from it. The star is where a group is joined. Cbz = O=C(OCc1ccccc1)*; CH2F = FC*

Assays:
[1] = tested on: MCF-7 breast carcinoma cells; test: Apoptosis in MCF-7 breast carcinoma cells (microscopy, Hoechst dye); format: cell-based, human; conditions: MCF-7 cells pre-treated 1 hour, then 14 hours with ligand, FIG. 9B
Experimental: Human MCF-7 breast carcinoma cells (ATCC HTB 22) were pre-treated for 1 hour with cyclohexamide (CHX) (10 μg/ml) and incubated for 14 hours with soluble Apo-3 Ligand (2 μg/ml; prepared as described in Example 3 above) alone or together with zVAD-fmk (Research Biochemicals) (100 nM). The cells were then stained with Hoechst dye and photographed by phase (FIG. 9A, left) and by fluorescence (FIG. 9A, right) microscopy. In FIG. 9A, arrowheads indicate some of the apoptotic cells (left) and their condensed nuclei (right).
In a separate experiment, the MCF-7 cells were pre-treated for 1 hour with buffer or CHX, incubated for an additional 14 hours with the indicated concentrations of soluble Apo-3 Ligand (see FIG. 9B), and apoptotic or live cells were score by microscopy.

[2] = tested on: Jun N-terminal kinase (JNK/SAPK); test: JNK/SAPK activity in 293 cells transfected with full length Apo-3 Ligand; format: cell-based, human; conditions: 293 cells, inhibitor 200 μM, FIG. 7
Experimental: The pRK5 plasmid encoding Apo-3 Ligand polypeptide or empty pRK5 plasmid (see Example 6 above) was transiently transfected into human 293 cells (ATCC CCL 1573) by calcium phosphate precipitation. Four hours later, one set of cells was treated with z-VAD-fmk (Research Biochemicals) (200 μM). Twenty hours later, the cells were harvested and analyzed for activity of Jun N-terminal kinase (JNK; also called stress activated protein kinase or SAPK) using a commercially available JNK/SAPK assay kit (New England Biolabs), and according to the manufacturer's instructions.

[3] = tested on: HeLa S3 cervical carcinoma cells; test: Apoptosis in HeLa S3 cells (DNA fragmentation analysis); format: cell-based, human; conditions: HeLa S3 cells, inhibitor 100 nM, FIG. 9C
Experimental: HeLa S3 cervical carcinoma cells (ATCC CCL 2.2) were similarly pre-treated with CHX and then incubated with soluble Apo-3 Ligand (prepared as described in Example 3 above) alone or together with zVAD-fmk or DEVD-fmk (Research Biochemicals) (100 nM). The treated cells were then subjected to DNA fragmentation analysis.

HeLa cells = test: Apoptosis in HeLa cells transfected with full length Apo-3 Ligand (FACS, annexin V binding); format: cell-based, human; conditions: HeLa cells, inhibitor 200 μM, FIG. 6
Experimental: A pRK5 plasmid (see EP 307,247) encoding Apo-3 Ligand polypeptide (amino acids 1 to 249 of FIG. 1), or empty pRK5 plasmid, was transiently transfected along with a pRK5 plasmid encoding human CD4 as a marker for transfection into human HeLa cells by electroporation, and the cells were plated in tissue culture dishes. Four hours later, the caspase inhibitor z-VAD-fmk (Research Biochemicals) (200 μM) was added to some of the dishes. Twenty hours later, apoptosis was determined by FACS analysis of cells positive for the CD4 marker by measuring binding of fluorescein isothiocyanate (FITC)-conjugated annexin V (Brand Applications) (see WO 97/25428).

DR5 = molecular target: T1, DR5 (Homo sapiens, UniProt O14763); test: Co-immunoprecipitation binding assay with DR5 ECD; conditions: ligand and receptor 1 μg/ml, FIG. 8A
T1 construct: the ECD of the Apo-2L receptor, DR5; made in house
T1 sequence (O14763 56-184 limits assumed): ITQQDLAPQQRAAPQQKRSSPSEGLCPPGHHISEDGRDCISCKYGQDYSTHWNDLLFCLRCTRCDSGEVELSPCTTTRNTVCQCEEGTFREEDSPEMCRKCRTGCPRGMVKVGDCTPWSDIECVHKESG
Experimental: A Flag-epitope tagged soluble Apo-3 was produced (as described for DR5 in Sheridan et al., Science, 277:818 (1997)) and tested in a co-immunoprecipitation assay to examine its ability to associate with a histidine tagged soluble Apo-3 Ligand (see Example 3 above). […] The respective ligands (1 μg/ml) and receptors (1 μg/ml) were incubated for 1 hour at room temperature. The reaction mixtures were subjected to precipitation with anti-Flag antibody conjugated to sepharose beads (Kodak) (FIG. 8A, left) or nickel-sepharose (Qiagen) (FIG. 8A, right) by overnight incubation at 4° C. according to manufacturer's instructions and resolved by gel electrophoresis. The ligands were visualized by Western blot analysis with nickel-conjugated horseradish peroxidase. In FIG. 8A, molecular weight markers (kDa) are indicated on the left.

Apo-3 Ligand = molecular target: T2, Apo-3 Ligand (Homo sapiens, UniProt O43508); test: Apoptosis induction by Apo-3 Ligand after preincubation with Flag tagged Apo-3 and immunodepletion; format: cell-based; conditions: preincubation of ligand and immunodepletion of complexes with anti-Flag beads, FIG. 8B
T2 construct: made in house; host or cells: E. coli
T2 sequence (O43508 47-249): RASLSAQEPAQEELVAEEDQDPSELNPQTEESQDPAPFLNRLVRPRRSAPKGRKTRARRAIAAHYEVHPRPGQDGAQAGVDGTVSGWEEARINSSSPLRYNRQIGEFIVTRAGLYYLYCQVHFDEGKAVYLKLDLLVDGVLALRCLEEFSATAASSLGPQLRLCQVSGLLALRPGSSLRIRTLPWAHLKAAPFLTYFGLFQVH
Excerpt: Thus, there appeared to be a specific complex formation between Apo-3 Ligand and Apo-3.

Compound: C[C@@H]1C[C@@H]([C@H](O)CC2CC(=O)NC(=O)C2)C(=O)[C@@H](C)C1 [cyclohexamide, reference compound]
- effect on Apo-3 ligand-induced apoptosis [1]: augmented

Compound: COC(=O)C[C@H](NC(=O)[C@H](C)NC(=O)[C@@H](NC(=O)OCc1ccccc1)C(C)C)C(=O)CF [z-VAD-fmk, reference compound] (Cbz-Val-Ala-Asp(OMe)-CH2F)
- effect on JNK activation by Apo-3 Ligand [2]: augmented JNK activation
- effect on induction of apoptosis by Apo-3 Ligand [3]: blocked induction of apoptosis
- effect on the increase in apoptosis by Apo-3 Ligand transfection (HeLa cells): blocked

Compound: Apo-2 Ligand: TNF family cytokine, also referred to as TRAIL, tested for comparison
- binding to DR5 (DR5): bound to DR5

Compound: DEVD-fmk
- effect on induction of apoptosis by Apo-3 Ligand [3]: blocked induction of apoptosis

Compound: Flag tagged Apo-3: Flag-epitope tagged soluble Apo-3 receptor (also DR3, Wsl-1, TRAMP, LARD)
- effect on apoptosis induction by Apo-3 Ligand (Apo-3 Ligand): inhibited apoptosis induction
